# Data taken from patent US8022051B2, “Composition for protection and improvement of skin, or reinforcing skin barrier function comprising phosphatidylserine” (Doosan Corporation, priority 2004, dated 2011).
# Experiments:
# [1] = test system: skin of back region of CD-1 mouse; test: Skin differentiation promotion in the mouse (involucrin and loricrin expression); assay type: in vivo; conditions: 0.5% aqueous solution, 50 μl two times per day for two weeks; compared to negative control group; FIG. 6
# Experimental: In order to examine a differentiation promotion of the skin in a mouse model, a following experiment was performed.
# First, 0.5% phosphatidylserine aqueous solution was applied to the skin of a back region of the mouse (CD-1 mouse, male&female, 6-8 weeks, Charles River, USA) in an amount of 50 μl two times per a day for two weeks. After that, the skin tissue of the treated region was subject to the biopsy and then the biopsy tissue was fixed to 4% formaldehyde and sliced. Then, antibodies for involucrin and loricrin were attached and an expression amount of the protein was examined.
# PPAR-a = molecular target: T1, PPAR-a (Homo sapiens, UniProt Q07869); test: PPAR-a activation in HeLa cell line (PPRE-luciferase reporter); assay type: cell-based; conditions: 20 and 40 μM, eight hours; FIG. 7
# T1 construct: expressed in transfected cells; host or cells: HeLa (KCLB No. 10002)
# T1 sequence (Q07869 1-468): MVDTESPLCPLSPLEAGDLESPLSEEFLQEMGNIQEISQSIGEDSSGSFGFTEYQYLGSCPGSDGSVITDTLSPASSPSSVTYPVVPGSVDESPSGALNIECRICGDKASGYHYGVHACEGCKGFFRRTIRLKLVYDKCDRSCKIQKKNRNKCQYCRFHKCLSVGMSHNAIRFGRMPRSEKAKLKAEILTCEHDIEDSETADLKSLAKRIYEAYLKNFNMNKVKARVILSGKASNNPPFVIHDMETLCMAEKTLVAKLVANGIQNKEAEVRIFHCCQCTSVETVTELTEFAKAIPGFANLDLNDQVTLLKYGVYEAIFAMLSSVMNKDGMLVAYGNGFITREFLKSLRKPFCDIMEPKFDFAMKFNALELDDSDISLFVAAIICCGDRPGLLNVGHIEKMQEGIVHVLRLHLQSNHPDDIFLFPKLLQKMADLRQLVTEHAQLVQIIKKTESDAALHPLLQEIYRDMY
# Experimental: (§1) In order to examine a PPAR-a activating effect of the phosphatidylserine of the invention, a following experiment was performed. At this time, it was examined activities for the PPAR-a and PPAR-γ retained.
# (§2) First, a HeLa (Human epithelial carcinoma) (KCLB [Korean Cell Line Bank] No. 10002, Korea) was seeded to a 24-well plate in an amount of 2×10^4 cells/well and then cultured for a day. Next day, in order to perform a cell transfection, 200 ng of PPAR-a over-expression vector, 200 ng of PPRE (peculiar to PPAR-a)-luciferase reporter vector (Promega, USA), and 40 ng of renilla luciferase vector used as the control group in the cell (internal control, i.e., used to examine an transfection efficiency) were mixed in the OMEM (Gibco, USA) culture medium and subject to the transfection to the cell using the lipofectamin (Invitrogen, USA). After four hours, the culture medium was added to be 10% FBS and then cultured for one night. Next day, in order to measure an activity of PPAR-a, it was treated with 20 and 40 μM of phosphatidylserine and 400 μM of the clofibrate as the positive control group and then cultured for eight hours. An activity of the luciferase was measured with a luminometer using a dual luciferase assay system (Promega, USA). Also in case of PPAR-γ, the same process was performed to measure the activity. […]
# PPAR-γ = molecular target: T2, PPAR-γ (Homo sapiens, UniProt P37231); test: PPAR-γ activation in HeLa cell line (luciferase reporter); assay type: cell-based; conditions: 10 and 50 μM; FIG. 7
# T2 construct: expressed in transfected cells; host or cells: HeLa (KCLB No. 10002)
# T2 sequence (P37231 1-505): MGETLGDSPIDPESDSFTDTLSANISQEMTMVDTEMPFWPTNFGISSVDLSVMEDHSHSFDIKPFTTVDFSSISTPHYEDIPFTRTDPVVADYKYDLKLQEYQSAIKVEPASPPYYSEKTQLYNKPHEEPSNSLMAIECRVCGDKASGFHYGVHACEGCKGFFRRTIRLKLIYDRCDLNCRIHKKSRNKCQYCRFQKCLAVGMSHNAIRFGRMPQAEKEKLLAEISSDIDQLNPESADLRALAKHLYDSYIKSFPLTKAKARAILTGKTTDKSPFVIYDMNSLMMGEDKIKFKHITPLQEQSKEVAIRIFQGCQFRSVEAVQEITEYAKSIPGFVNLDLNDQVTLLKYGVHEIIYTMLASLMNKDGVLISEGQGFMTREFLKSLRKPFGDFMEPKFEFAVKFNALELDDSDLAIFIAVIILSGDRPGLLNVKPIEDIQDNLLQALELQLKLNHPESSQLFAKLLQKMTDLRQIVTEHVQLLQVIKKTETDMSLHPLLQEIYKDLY
# Experimental: as §1
# as §2, with “Next day, in order to measure an activity of PPAR-a, it was treated with 20 and 40 μM of phosphatidylserine and 400 μM of the clofibrate as the positive control group and then cultured for eight hours.” left out, “activity. At this time, in case of measuring the activity of PPAR-γ, 10 and 50 μM of phosphatidylserine and 50 μM of cyglitazone (Sigma, USA) as the positive control group were treated.” for “activity.”
# fibroblasts = test: Expression level of pro-collagen and MMP-1 in fibroblasts (western blot); assay type: cell-based; conditions: 20 μM, FIG. 10
# Experimental: In order to examine a skin aging-suppressing efficacy of the phosphatidylserine of the invention, it was quantitatively measured the expression amounts of the pro-collagen and the matrix metalloproteinase (MMP). It was tried a protein-antibody reaction through an electrophoresis (western blot) as the quantitative method. The cultivation was performed in manners of irradiating the ultraviolet to the fibroblasts (a gift from Seoul National University, Korea) and otherwise. After that, it was treated with the phosphatidylserine (20 μM), the cell was collected to extract the protein parts. The extracted protein was dissolved in the sodium dodecyl sulfate (SDS) and then subject to the electrophoresis on the SDS-polyacrylamide gel. […] An amount of the protein was measured using the color.
substance,measurement,setting,value
phosphatidylserine,expression amounts of involucrin and loricrin in skin,[1],remarkably increased
same,activity of PPAR-a (luciferase),PPAR-a,activated
same,activity of PPAR-γ (luciferase),PPAR-γ,had no influence
same,expression amount of MMP-1,fibroblasts,decreased
same,expression amount of pro-collagen,fibroblasts; with ultraviolet irradiation and otherwise,increased
